According to a melting point compilation (Tetko et al.):

In the case of `CC(=O)Nc1cc([N+](=O)[O-])c(F)cc1F`, the melting point is reported as 146 to 148 °C.
For `COC(=O)c1cc(Br)cc(Br)c1`, the melting point was 63 °C.
`CCC(C)C(=O)NC1CCC(=O)N(CCc2ccccc2)C1=O` (centres undefined) gave a melting point of 108 °C.
For `COc1ccc(C2(C)CCc3oc4ccc(Cl)cc4c3-c3oc(C)cc32)cc1` (centres undefined), the melting point was 144 °C.
`C/C(=N\c1ccccc1O)c1c(O)c2ccccc2n(-c2ccccc2)c1=O` showed a melting point of 268 to 269 °C.
Compound `C[C@]12CCC(=O)C=C1C(=O)C[C@@H]1[C@@H]2CC[C@]2(C)C(=O)CC[C@@H]12` has a melting point of 222 °C.
In the case of `Nc1ccc2nsnc2c1`, the melting point is reported as 112 to 114 °C.
Work on `CC(C)NC(=O)COC(=O)c1ccccc1` yielded a melting point of 130 °C.
With `O=C(Nc1nccs1)C(C(F)(F)F)C(F)(F)F` the melting point was 148 °C.
For `Nc1ccc([N+](=O)[O-])cc1C(=O)O`, the melting point was 278 °C.
Compound `Cn1ncc(N2CCOCC2)c(Cl)c1=O` has a melting point of 131 to 133 °C.
With `N#C/C(=N\Nc1cccc(O)c1)c1nc2ccccc2s1` the melting point was 175 °C.
Compound `Nc1ccc(CC(=O)O)cc1` has a melting point of 200 °C.
`C1CCCNCCC1` gave a melting point of 29 °C.
For `O=C1C(Cl)=C(Cl)C(=O)N1c1ccc(F)cc1`, the melting point was 241 °C.
In the case of `C[Si](C)(C)C#CC1(O)Cc2ccccc21` (centres undefined), the melting point is reported as 47 °C.
For `CCOP(=S)(OCC)SCCSCC`, the melting point was -25 °C.
`COc1ccc([N+](=O)[O-])cc1N=C=S` showed a melting point of 105 to 107 °C.
For `NC(=O)C(Cc1ccc([N+](=O)[O-])cc1)c1ccccc1` (centres undefined), the melting point was 176 °C.
`CC(C)=C1OC(=O)C1(C)C` gave a melting point of -18 °C.
`CC(C)(C)c1cc(C(=O)O)cc(C(C)(C)C)c1` gave a melting point of 161 °C.
With `CC(=O)C12OC1CC1C3CCC4=CC(=O)CCC4(C)C3C(O)CC12C` (centres undefined) the melting point was 206 °C.
In the case of `CCC(C)Cn1c(O)nnc1S` (centres undefined), the melting point is reported as 147 to 151 °C.
For `CCN1CCN(C(=O)NC(C(=O)NC2C(=O)N3C(C(=O)O)=C(CSc4nnnn4C)CSC23)c2ccc(O)cc2)C(=O)C1=O` (centres undefined), the melting point was 169 °C.
With `CCCCCCCC/C=C\CCCCCCCC#N` the melting point was -1 °C.
In the case of `CSc1ncc(Cl)c(C(=O)O)n1`, the melting point is reported as 200 °C.
Compound `CSc1nc(NC(C)C)nc(NC(C)C)n1` has a melting point of 119 °C.
With `O=C1/C(=N/Nc2cccc(C(F)(F)F)c2)C(C(F)(F)F)=NN1c1ccccc1` the melting point was 160 °C.
Compound `C=Cc1ccc(C=C)cc1` has a melting point of 31 °C.
`O=C(Nc1cccnc1Cl)c1ccccc1Cl` showed a melting point of 115 to 117 °C.
Work on `CCCN(C(C)=O)c1ccccc1` yielded a melting point of 49 °C.
Compound `N#CCC(N)=C(C#N)C#N` has a melting point of 172 °C.
In the case of `CC12CCC(C(=O)OC1=O)C2(C)C` (centres undefined), the melting point is reported as 221 °C.
For `O=c1c(Cl)c(Cl)cnn1Cc1ccccc1F`, the melting point was 110 to 112 °C.
In the case of `CC12CCC(=O)C=C1CCC1C2C(O)CC2(C)C1CCC2(O)C(=O)CO` (centres undefined), the melting point is reported as 223 °C.
Work on `Cc1c(C)c(CCl)c(C)c(CCl)c1C` yielded a melting point of 117 °C.
Work on `COc1cc(C=C2SC(=S)N(CNc3ccc([N+](=O)[O-])cc3)C2=O)ccc1O` yielded a melting point of 195 °C.
`COc1cc2c(cc1OC)C(CO)NCC2` (centres undefined) showed a melting point of 135 to 139 °C.
`Sc1nc2cc3c(cc2[nH]1)OCCO3` showed a melting point of 300 °C.
With `COC(=O)c1cnc(Cl)nc1` the melting point was 76 to 80 °C.
`Nc1cc(Cl)ccc1S` showed a melting point of 98 °C.
`NC(=S)Nc1ccc(I)cc1` showed a melting point of 183 to 184 °C.
`O=C(N=C=S)c1cccc([N+](=O)[O-])c1` showed a melting point of 93 to 95 °C.
With `CC1CCC(C(C)C)C(OC(=O)OC2CC(C)CCC2C(C)C)C1` (centres undefined) the melting point was 106 °C.
`O=C(C=Cc1ccc(-c2ccccc2)o1)c1ccco1` gave a melting point of 99 to 101 °C.
`Cc1ccc(S(=O)(=O)OCCOCc2ccccc2)cc1` gave a melting point of 48 to 51 °C.
`CC(=O)N1CCc2ccccc21` gave a melting point of 102 to 104 °C.
For `CCc1ccc2cc3ccccc3cc2c1`, the melting point was 152 °C.
With `CNC1=CC(=O)c2ccccc2C1=O` the melting point was 230 °C.
With `ON=C(Cl)c1c(Cl)cccc1Cl` the melting point was 85 to 89 °C.
Work on `O=C(CI)NCCNc1cccc2c(S(=O)(=O)O)cccc12` yielded a melting point of 300 °C.
For `COc1ccc(Oc2ccc(C(F)(F)F)cc2N)cc1`, the melting point was 73 to 75 °C.
With `Cc1cc(C(F)(F)F)n2nc(-c3ccccc3)cc2n1` the melting point was 174 °C.
Work on `c1cc2c3c(cccc3c1)C1=NCCN=C12` yielded a melting point of 95 °C.
`CC(=O)Nc1ccccc1N=Nc1ccccc1` gave a melting point of 123 °C.
With `CCOC(=O)C(Br)C(Br)c1ccccc1` (centres undefined) the melting point was 77 to 79 °C.
Compound `Nc1ccccc1C(=NO)c1ccccc1` has a melting point of 157 to 158 °C.
For `CCOCCOC(=O)C(C)Oc1ccc(Oc2ncc(C(F)(F)F)cc2Cl)cc1` (centres undefined), the melting point was 60 °C.
Compound `O=c1cc[nH]c(=O)[nH]1` has a melting point of 338 °C.
`COc1ccc(COC(C)=O)cc1` showed a melting point of 84 °C.
Work on `O=C(O)c1ccc(Oc2ccccc2)cc1` yielded a melting point of 162 °C.
Work on `CCCCCCCCCCCCCCCCC1CCCCC1` yielded a melting point of 33.6 °C.
Compound `O=C1c2ccccc2-c2ccc3c4ccc5c6c(ccc(c7ccc1c2c73)c64)C(=O)c1ccccc1-5` has a melting point of 492 °C.
For `O=C(C(=S)Nc1ccc(Br)cc1)c1ccccc1`, the melting point was 118 °C.
`FC(F)(Br)C(F)(F)Br` showed a melting point of -110 °C.
For `CCCCc1c(C)nc(N)nc1O`, the melting point was 273 to 275 °C.
For `O=C(O)C1(C(=O)O)C2CCCCCCC21` (centres undefined), the melting point was 217 °C.
With `Clc1ccc(-c2c(Cl)cc(Cl)c(Cl)c2Cl)cc1Cl` the melting point was 107 °C.
With `COc1cc(C2c3cc4c(c(O)c3CC3COC(=O)C32)OCO4)cc(OC)c1OC` (centres undefined) the melting point was 234 °C.
For `N#CCc1nn(-c2ccccc2)c(N)c1C#N`, the melting point was 164 °C.
`O=C1C=CC(=O)c2c(Cl)cccc21` showed a melting point of 163 °C.
`O=C(Nc1ccccc1)c1cccc(S(=O)(=O)Nc2ccccc2)c1` gave a melting point of 212 to 215 °C.
`NC(=O)N1c2ccccc2CCc2ccccc21` showed a melting point of 205 °C.
Compound `O=C(O)CCCOc1ccc(Cl)cc1Cl` has a melting point of 118 °C.
`Cc1cc(C)c(N)c(C(O)c2ccccc2)c1` (centres undefined) gave a melting point of 125 °C.
`COc1ccc(C(=O)NN=C(C)c2c(O)c3ccccc3n(-c3ccccc3)c2=O)cc1` gave a melting point of 218 °C.
For `COC(=O)C(C)(C)C(CC(=O)O)c1ccccc1` (centres undefined), the melting point was 111 °C.
`O=C(O)C(O)C(O)C(=O)Nc1ccc(Cl)cc1` (single isomer, unassigned; (+)) showed a melting point of 193 to 195 °C.
`Clc1cc(Cl)c2oc3c(Cl)c(Cl)ccc3c2c1` gave a melting point of 164 °C.
Compound `CN1CCCN(c2ccc(C#N)cc2)CC1` has a melting point of 93 to 94 °C.
Work on `Cc1sc(-c2ccccn2)nc1-c1ccccc1` yielded a melting point of 86 °C.
In the case of `CCCCCC(N)P(=O)(O)O` (centres undefined), the melting point is reported as 265 to 268 °C.
Compound `O=C(O)Cc1ccc(CO)cc1` has a melting point of 133 °C.
In the case of `CCCC(C)(C)C(C)(C)C`, the melting point is reported as -54 °C.
Compound `Clc1nccc(-c2ccco2)n1` has a melting point of 81.5 to 82.5 °C.
Work on `O=C(c1ccccc1)c1ccc(F)c(F)c1` yielded a melting point of 56 °C.
In the case of `BrCCOc1ccc(Br)cc1`, the melting point is reported as 56 to 57 °C.
With `Cc1c(C)c2c(c(C)c1O)CCC(C)(COc1ccc(CC3SC(=O)NC3=O)cc1)O2` (centres undefined) the melting point was 185 °C.
Compound `Fc1ccc(-c2ccno2)cc1` has a melting point of 55 °C.
For `CNC(=S)NCO`, the melting point was 88 °C.
`Nc1c(Br)cc(Br)cc1C(F)(F)F` gave a melting point of 42 °C.
In the case of `O=C(Oc1cccc(N=Nc2cccc(OC(=O)c3ccccc3)c2)c1)c1ccccc1`, the melting point is reported as 180 °C.
`Nc1ncnc2c1ncn2C1OC(COP(=O)(O)OP(=O)(O)OP(=O)(O)O)C(O)C1O` (centres undefined) gave a melting point of 176 °C.
For `CC(C)OC(=O)OOC(=O)OC(C)C`, the melting point was 10 °C.
With `CC(C)CNC(=O)N1CCNC1=O` the melting point was 95.5 °C.
Work on `CC(C)(C)OC(=O)N[C@@H](Cc1ccccc1)C(=O)O` yielded a melting point of 85 to 88 °C.
In the case of `CN(C)C1=NC(=O)C(c2ccccc2)O1` (centres undefined), the melting point is reported as 133 °C.
Work on `Cc1cc([N+]([O-])=Nc2ccccc2)c(C(C)C)cc1[N+]([O-])=Nc1ccccc1` yielded a melting point of 127 °C.
`CCCCCCCCOc1ccc(N)cc1` showed a melting point of 35 to 39 °C.
`O=C(Cl)c1cccc2c1OCCCO2` gave a melting point of 36 to 38 °C.
In the case of `CN1C(=O)NC(=O)C1(C)C`, the melting point is reported as 163 °C.
With `O=C(O)c1cccc2cccc(Br)c12` the melting point was 169 to 171 °C.
`O=C(CCCN1CCC(O)(c2ccc(Br)cc2)CC1)c1ccc(F)cc1` showed a melting point of 155 °C.
Work on `Cc1nc(-c2ccc(C(F)(F)F)cc2)sc1S(=O)(=O)Cl` yielded a melting point of 93 to 94 °C.
For `CC(=O)Nc1ccccc1CCN(CCc1ccccc1NC(C)=O)N=O`, the melting point was 172 °C.
Compound `CCOC(=O)Nc1ccc2c(c1)N(C(=O)CCN1CCOCC1)c1ccccc1S2` has a melting point of 156 °C.
With `CCOC(=O)c1cc(-c2ccco2)on1` the melting point was 49 to 50 °C.
`O=c1c(Cl)c(Cl)cnn1-c1ccc(C(F)(F)F)cc1` showed a melting point of 139 to 140 °C.
`O=[N+]([O-])c1c(F)ccc(Cl)c1F` gave a melting point of 47 °C.
Work on `ClCc1nnc(-c2ccc3ccccc3c2)o1` yielded a melting point of 128 to 130 °C.
`CSc1nnc(C(C)(C)C)c(=O)n1N=CC(C)C` showed a melting point of 159 °C.
In the case of `COC(CCl)OC`, the melting point is reported as -73 °C.
`O=C(O)c1cccnc1Oc1ccc(F)cc1` gave a melting point of 187 to 189 °C.
`O=C1CCC(C(=O)O)=NN1` gave a melting point of 199 to 200 °C.
`C=C(C)C(N)=O` showed a melting point of 110 °C.
Compound `C=COC(=O)CCCCCCCCCCCCCCCCC` has a melting point of 36 °C.
For `C1CCCC2OC2CC1` (centres undefined), the melting point was 53 to 56 °C.
Compound `O=Cc1csc2ccc(Cl)cc12` has a melting point of 109 to 111 °C.
For `CCCCCCCCC(C)=O`, the melting point was 14 °C.
`COc1ccc(N=C(S)SC)cc1` showed a melting point of 111 to 113 °C.
`O=C(Cl)c1cccc2ccsc12` showed a melting point of 84 to 86 °C.
`CNc1nnc(S)s1` showed a melting point of 190 to 193 °C.
Compound `OCCN1CCCCC1C(c1ccccc1)c1ccccc1` (centres undefined) has a melting point of 106 °C.
Work on `CCC1N(O)C(C)(C)C(C(=O)O)=[N+]1[O-]` (centres undefined) yielded a melting point of 98.8 to 99 °C.
For `CCCCCCCc1ccc(NC(=O)c2ccc(CC)cc2)cc1`, the melting point was 102 °C.
In the case of `O=[N+]([O-])c1ccccc1OCCOc1ccccc1[N+](=O)[O-]`, the melting point is reported as 169 °C.
Compound `Cc1ccc(C(C)(Cl)C(=O)O)cc1` (centres undefined) has a melting point of 112 °C.
Work on `CC(C)CN(CC(C)C)CC(C)C` yielded a melting point of -21.8 °C.
For `CCS(=O)(=O)Oc1ccc2c(c1)C(C)(C)CO2`, the melting point was 30 °C.
